Measurements reported in US10597388B2, “Pyridazinone herbicides” (FMC CORPORATION, priority 2014, dated 2020).

Columns and labels:
Assay in all cases: Test D controlled growth environment herbicide test, pre- and postemergence
Assay type in all cases: in vivo
[1] = system: barley, winter (winter barley, Hordeum vulgare)
In short: (§1)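 Rating is visual, 0–100 scale (100 = complete control), made against untreated plants 14–21 d after treatment in controlled growth conditions. Postemergence sprays went onto 1- to 4-leaf plants in peat medium; preemergence sprays onto silt loam after sowing; formulation included a surfactant.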

[2] = system: blackgrass (Alopecurus myosuroides)
In short: as §1

[3] = system: bluegrass (annual bluegrass, Poa annua)
In short: as §1

[4] = system: bromegrass, downy (downy bromegrass, Bromus tectorum)
In short: as §1

[5] = system: buckwheat, wild (wild buckwheat, Polygonum convolvulus)
In short: as §1

[6] = system: canarygrass (Phalaris minor)
In short: as §1

[7] = system: foxtail, green (green foxtail, Setaria viridis)
In short: as §1

[8] = system: galium (catchweed bedstraw, Galium aparine)
In short: as §1

[9] = system: lambsquarters (Chenopodium album)
In short: as §1

[10] = system: pigweed (Amaranthus retroflexus)
In short: as §1

[11] = system: ryegrass, Italian (Italian ryegrass, Lolium multiflorum)
In short: as §1

[12] = system: wheat, spring (spring wheat, Triticum aestivum)
In short: as §1

[13] = system: windgrass (Apera spica-venti)
In short: as §1

[14] = Postemergence, 31 g ai/ha, scale 0 to 100 (0 no effect, 100 complete control)
[15] = Postemergence, 125 g ai/ha, visual rating on scale 0 (no effect) to 100 (complete control), 14 to 21 d
[16] = Postemergence, 250 g ai/ha, scale 0 to 100 (0 no effect, 100 complete control)
[17] = Preemergence, 62 g ai/ha, scale 0 to 100 (0 no effect, 100 complete control)
[18] = Preemergence, 125 g ai/ha, scale 0 to 100 (0 no effect, 100 complete control)
[19] = Preemergence, 250 g ai/ha, scale 0 to 100, 0 no effect, 100 complete control
[20] = postemergence, 62 g ai/ha, scale 0 to 100, 0 no effect, 100 complete control

## CCc1sc2ccc(C)cc2c1-c1c(O)c(C)nn(C)c1=O [Compound 47]
[1]; [14]
  Barley, Winter plant response rating: 10
[1]; [15]
  Plant response rating, Barley, Winter: 15
[1]; [16]
  Plant response rating, Barley, Winter: 15
[1]; Preemergence, 31 g ai/ha
  Plant response rating (scale of 0 to 100), Barley, Winter: 0
[1]; [17]
  Plant response rating, Barley, Winter: 0
[1]; [18]
  Plant response rating, Barley, Winter: 5
[1]; [19]
  Barley, Winter plant response rating: 10
[1]; [20]
  Plant response rating, Barley, Winter: 10
[2]; [14]
  Blackgrass plant response rating: 25
[2]; [15]
  Plant response rating, Blackgrass: 35
[2]; [16]
  Plant response rating, Blackgrass: 65
[2]; Preemergence, 31 g ai/ha
  Plant response rating (scale of 0 to 100), Blackgrass: 5
[2]; [17]
  Plant response rating, Blackgrass: 20
[2]; [18]
  Plant response rating, Blackgrass: 30
[2]; [19]
  Blackgrass plant response rating: 50
[2]; [20]
  Plant response rating, Blackgrass: 25
[3]; [14]
  Bluegrass plant response rating: 5
[3]; [15]
  Plant response rating, Bluegrass: 10
[3]; [16]
  Plant response rating, Bluegrass: 15
[3]; Preemergence, 31 g ai/ha
  Plant response rating (scale of 0 to 100), Bluegrass: 0
[3]; [17]
  Plant response rating, Bluegrass: 20
[3]; [18]
  Plant response rating, Bluegrass: 20
[3]; [19]
  Bluegrass plant response rating: 20
[3]; [20]
  Plant response rating, Bluegrass: 10
[4]; [14]
  Bromegrass, Downy plant response rating: 5
[4]; [15]
  Plant response rating, Bromegrass, Downy: 5
[4]; [16]
  Plant response rating, Bromegrass, Downy: 5
[4]; Preemergence, 31 g ai/ha
  Plant response rating (scale of 0 to 100), Bromegrass, Downy: 5
[4]; [17]
  Plant response rating, Bromegrass, Downy: 10
[4]; [18]
  Plant response rating, Bromegrass, Downy: 15
[4]; [19]
  Plant response rating, Bromegrass, Downy: 15
[4]; [20]
  Plant response rating, Bromegrass, Downy: 0
[5]; [14]
  Buckwheat, Wild plant response rating: 60
[5]; [15]
  Plant response rating, Buckwheat, Wild: 90
[5]; [16]
  Plant response rating, Buckwheat, Wild: 100
[5]; Preemergence, 31 g ai/ha
  Plant response rating (scale of 0 to 100), Buckwheat, Wild: 70
[5]; [17]
  Plant response rating, Buckwheat, Wild: 60
[5]; [18]
  Plant response rating, Buckwheat, Wild: 70
[5]; [19]
  Plant response rating, Buckwheat, Wild: 85
[5]; [20]
  Plant response rating, Buckwheat, Wild: 75
[6]; [14]
  Canarygrass plant response rating: 0
[6]; [15]
  Plant response rating, Canarygrass: 0
[6]; [16]
  Plant response rating, Canarygrass: 0
[6]; Preemergence, 31 g ai/ha
  Plant response rating (scale of 0 to 100), Canarygrass: 0
[6]; [17]
  Plant response rating, Canarygrass: 0
[6]; [18]
  Plant response rating, Canarygrass: 0
[6]; [19]
  Plant response rating, Canarygrass: 5
[6]; [20]
  Plant response rating, Canarygrass: 0
[7]; [14]
  Foxtail, Green plant response rating: 50
[7]; [15]
  Plant response rating, Foxtail, Green: 70
[7]; [16]
  Plant response rating, Foxtail, Green: 80
[7]; Preemergence, 31 g ai/ha
  Plant response rating (scale of 0 to 100), Foxtail, Green: 0
[7]; [17]
  Plant response rating, Foxtail, Green: 25
[7]; [18]
  Plant response rating, Foxtail, Green: 60
[7]; [19]
  Plant response rating, Foxtail, Green: 100
[7]; [20]
  Plant response rating, Foxtail, Green: 60
[8]; [14]
  Galium plant response rating: 65
[8]; [15]
  Plant response rating, Galium: 75
[8]; [16]
  Plant response rating, Galium: 80
[8]; Preemergence, 31 g ai/ha
  Plant response rating (scale of 0 to 100), Galium: 85
[8]; [17]
  Plant response rating, Galium: 95
[8]; [18]
  Plant response rating, Galium: 100
[8]; [19]
  Plant response rating, Galium: 100
[8]; [20]
  Plant response rating, Galium: 75
[9]; [14]
  Lambsquarters plant response rating: 45
[9]; [15]
  Plant response rating, Lambsquarters: 70
[9]; [16]
  Plant response rating, Lambsquarters: 70
[9]; Preemergence, 31 g ai/ha
  Plant response rating (scale of 0 to 100), Lambsquarters: 100
[9]; [17]
  Plant response rating, Lambsquarters: 100
[9]; [18]
  Plant response rating, Lambsquarters: 100
[9]; [19]
  Plant response rating, Lambsquarters: 100
[9]; [20]
  Plant response rating, Lambsquarters: 50
[10]; [14]
  Pigweed plant response rating: 75
[10]; [15]
  Plant response rating, Pigweed: 100
[10]; [16]
  Plant response rating, Pigweed: 100
[10]; Preemergence, 31 g ai/ha
  Plant response rating (scale of 0 to 100), Pigweed: 70
[10]; [17]
  Plant response rating, Pigweed: 100
[10]; [18]
  Plant response rating, Pigweed: 100
[10]; [19]
  Plant response rating, Pigweed: 100
[10]; [20]
  Plant response rating, Pigweed: 75
[11]; [14]
  Ryegrass, Italian plant response rating: 10
[11]; [15]
  Plant response rating, Ryegrass, Italian: 30
[11]; [16]
  Plant response rating, Ryegrass, Italian: 45
[11]; Preemergence, 31 g ai/ha
  Plant response rating (scale of 0 to 100), Ryegrass, Italian: 20
[11]; [17]
  Plant response rating, Ryegrass, Italian: 30
[11]; [18]
  Plant response rating, Ryegrass, Italian: 60
[11]; [19]
  Plant response rating, Ryegrass, Italian: 70
[11]; [20]
  Plant response rating, Ryegrass, Italian: 10
[12]; [14]
  Wheat, Spring plant response rating: 10
[12]; [15]
  Plant response rating, Wheat, Spring: 15
[12]; [16]
  Plant response rating, Wheat, Spring: 15
[12]; Preemergence, 31 g ai/ha
  Plant response rating (scale of 0 to 100), Wheat, Spring: 5
[12]; [17]
  Plant response rating, Wheat, Spring: 5
[12]; [18]
  Plant response rating, Wheat, Spring: 15
[12]; [19]
  Plant response rating, Wheat, Spring: 15
[12]; [20]
  Plant response rating, Wheat, Spring: 10
[13]; [14]
  Windgrass plant response rating: 10
[13]; [15]
  Plant response rating, Windgrass: 15
[13]; [16]
  Plant response rating, Windgrass: 15
[13]; Preemergence, 31 g ai/ha
  Plant response rating (scale of 0 to 100), Windgrass: 5
[13]; [17]
  Plant response rating, Windgrass: 5
[13]; [18]
  Plant response rating, Windgrass: 20
[13]; [19]
  Plant response rating, Windgrass: 75
[13]; [20]
  Plant response rating, Windgrass: 10
